SMILES strings stand for the structures. Bounds are passed on as bounds.

The values below come from US10287301B2 (Achillion Pharmaceuticals, Inc., priority 2015, dated 2019).

The first assay deals with Human Factor D (Homo sapiens (Human), UniProt P00746). Description: Human Factor D Assay. It counts as biochemical.
Sequence of Human Factor D (P00746 26-253): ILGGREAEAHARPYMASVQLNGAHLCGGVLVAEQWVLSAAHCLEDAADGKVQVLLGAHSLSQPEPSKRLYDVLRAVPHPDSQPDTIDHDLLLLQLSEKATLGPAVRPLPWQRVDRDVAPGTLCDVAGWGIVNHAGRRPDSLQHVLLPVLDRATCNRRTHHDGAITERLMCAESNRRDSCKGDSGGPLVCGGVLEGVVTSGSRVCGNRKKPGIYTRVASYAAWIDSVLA
Settings: not given
An outline of the steps: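 Thioesterase activity monitored with Z-L-Lys-SBzl plus Ellman's reagent (DTNB), each 100 μM final, after 5 min room-temperature compound preincubation of 80 nM human serum Factor D in pH 7.5 Tris (50 mM)/1M NaCl.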
In general, IC50 refers to the point on the concentration scale where inhibition reaches its midpoint. In turn, `CC(=O)c1nn(CC(=O)N2[C@@H]3CC[C@@H](C3)[C@H]2C(=O)Nc2cccc(Br)n2)c2ccc(-c3cnc(C)nc3)cc12` [Compound 491, (1R,3S,4S)-2-(2-(3-acetyl-5-(2-methylpyrimidin-5-yl)-1H-indazol-1-yl)acetyl)-N-(6-bromopyridin-2-yl)-2-azabicyclo[2.2.1] heptane-3-carboxamide] returned an IC50 of less than 1000 nM. With `Cc1cccc(NC(=O)[C@@H]2[C@H]3CC[C@H](C3)N2C(=O)Cn2cc(C(N)=O)c3cc(-c4ccc5cccnc5c4)ccc32)n1` [Compound 499, 1-(2-((1R,3S,4S)-3-(6-Methylpyridin-2-ylcarbamoyl)-2-azabicyclo[2.2.1]heptan-2-yl)-2-oxoethyl)-5-(quinolin-7-yl)-1H-indole-3-carboxamide], the half-inhibitory concentration (IC50) lay in the range of 1000 to 10000 nM.

Staying with this assay, now noted: Table 3; Human Factor D 80 nM, substrate Z-L-Lys-SBzl; read-out: IC50 (Stars).
For the compound `CC(=O)c1nn(CC(=O)N2C[C@H](F)C[C@H]2c2nc(-c3cccc(Br)n3)c[nH]2)c2ccc(-c3cnc(C)nc3)cc12` [Compound 469, 2-(3-acetyl-5-(2-Methylpyrimidin-5-yl)-1H-indazol-1-yl)-1-((2S,4R)-2-(4-(6-bromopyridin-2-yl)-1H-imidazol-2-yl)-4-fluoropyrrolidin-1-yl)ethan-1-one], the IC50 is less than 1000 nM. Regarding `Cc1cccc(NC(=O)[C@@H]2[C@H]3CC[C@H](C3)N2C(=O)Cn2cc(C(N)=O)c3cc(-c4cnc(C)nc4)ccc32)n1` [Compound 473, 1-(2-((1R,3S,4S)-3-(6-Methylpyridin-2-ylcarbamoyl)-2-azabicyclo[2.2.1]heptan-2-yl)-2-oxoethyl)-5-(2-methylpyrimidin-5-yl)-1H-indole-3-carboxamide], the IC50 is greater than 10000 nM. With `CC(=O)c1nn(CC(=O)N2C[C@H](F)C[C@H]2C(=O)NCC(F)=C(C)C)c2ccc(-c3cnc(C)nc3)cc12` [Compound 474, (2S,4R)-1-(2-(3-acetyl-5-(2-methylpyrimidin-5-yl)-1H-indazol-1-yl)acetyl)-4-fluoro-N-(2-fluoro-3-methylbut-2-en-1-yl)pyrrolidine-2-carboxamide], the IC50 was less than 1000 nM. Same read-out and setting: the same measure for `CC(=O)c1nn(CC(=O)N2C3CC[C@@H](C3)[C@H]2C(=O)Nc2cccc(Br)n2)c2ccc(-c3cnc(C)nc3)cc12` [Compound 475, (3S,4S)-2-(2-(3-Acetyl-5-(2-methylpyrimidin-5-yl)-1H-indazol-1-yl)acetyl)-N-(6-bromopyridin-2-yl)-2-azabicyclo[2.2.1]heptane-3-carboxamide]: less than 1000 nM; for `CC(=O)c1nn(CC(=O)N2C[C@H](F)C[C@H]2C(=O)Nc2ccn(-c3ccc(F)cn3)n2)c2ccc(-c3cnc(C)nc3)cc12` [Compound 479, (2S,4R)-1-(2-(3-acetyl-5-(2-Methylpyrimidin-5-yl)-1H-indazol-1-yl)acetyl)-4-fluoro-N-(1-(5-fluoropyridin-2-yl)-1H-pyrazol-3-yl)pyrrolidine-2-carboxamide]: less than 1000 nM.

Consider `CC(=O)c1nn(CC(=O)N2[C@H](C(=O)Nc3cccc(Br)n3)C[C@@]3(C)C[C@@H]23)c2ccc(-c3cnc(N)nc3)cc12` [Compound 480, (1R,3S,5R)-2-(2-(3-Acetyl-5-(2-aminopyrimidin-5-yl)-1H-indazol-1-yl)acetyl)-N-(6-bromopyridin-2-yl)-5-methyl-2-azabicyclo[3.1.0]hexane-3-carboxamide], for which the IC50 was less than 1000 nM.

For the compound `CC(=O)c1cn(CC(=O)N2CC[C@H]2C(=O)Nc2cccc(C)n2)c2ccc(-c3cnc(C)nc3)cc12` [Compound 481, (S)-1-(2-(3-a=Acetyl-5-(2-methylpyrimidin-5-yl)-1H-indol-1-yl)acetyl)-N-(6-methylpyridin-2-yl)azetidine-2-carboxamide], the IC50 was greater than 10000 nM.

Regarding `CC(=O)c1nn(CC(=O)N2[C@@H]3C[C@@H]3C[C@H]2C(=O)NCC(F)=C(C)C)c2ccc(-c3cnc(C)nc3)cc12` [Compound 482, (1R,3S,5R)-2-(2-(3-acetyl-5-(2-methylpyrimidin-5-yl)-1H-indazol-1-yl)acetyl)-N-(2-fluoro-3-methylbut-2-en-1-yl)-2-azabicyclo[3.1.0] hexane-3-carboxamide], the IC50 is less than 1000 nM. As for `CC(=O)c1nn(CC(=O)N2C[C@H](F)C[C@H]2C(=O)NCc2cccc(Br)n2)c2ccc(-c3cnc(C)nc3)cc12` [Compound 483, (2S,4R)-1-(2-(3-Acetyl-5-(2-methylpyrimidin-5-yl)-1H-indazol-1-yl)acetyl)-N-((6-bromopyridin-2-yl)methyl)-4-fluoropyrrolidine-2-carboxamide], the IC50 was less than 1000 nM. Turning to `COc1cc(Br)nc(NC(=O)[C@@H]2C[C@@]3(C)C[C@H]3N2C(=O)Cn2nc(C(C)=O)c3cc(-c4cnc(C)nc4)ccc32)c1` [Compound 484, (1R,3S,5R)-2-(2-(3-Acetyl-5-(2-methylpyrimidin-5-yl)-1H-indazol-1-yl)acetyl)-N-(6-bromo-4-methoxypyridin-2-yl)-5-methyl-2-azabicyclo[3.1.0]hexane-3-carboxamide], the IC50 is less than 1000 nM.

For `CC(=O)c1nn(CC(=O)N2[C@H](C(=O)Nc3nc(Br)ccc3C)C[C@@]3(C)C[C@@H]23)c2ccc(-c3cnc(C)nc3)cc12` [Compound 485, (1R,3S,5R)-2-(2-(3-Acetyl-5-(2-methylpyrimidin-5-yl)-1H-indazol-1-yl)acetyl)-N-(6-bromo-3-methylpyridin-2-yl)-5-methyl-2-azabicyclo[3.1.0]hexane-3-carboxamide], the half-inhibitory concentration (IC50) is less than 1000 nM. For `COc1ncc(-c2ccc3c(c2)c(C(C)=O)nn3CC(=O)N2[C@H](C(=O)Nc3cncc(Br)n3)C[C@@]3(C)C[C@@H]23)cn1` [Compound 486], the half-maximal inhibitory concentration (IC50) is less than 1000 nM.

Regarding `CC(=O)c1nn(CC(=O)N2C[C@H]3C[C@H]3[C@H]2C(=O)Nc2nc(Br)ccc2C)c2ccc(-c3cnc(C)nc3)cc12` [Compound 488, (1R,2S,5S)-3-(2-(3-Acetyl-5-(2-methylpyrimidin-5-yl)-1H-indazol-1-yl)acetyl)-N-(6-bromo-3-methylpyridin-2-yl)-3-azabicyclo[3.1.0]hexane-2-carboxamide], the concentration for half-maximal inhibition (IC50) is less than 1000 nM. On to `Cc1cccc(NC(=O)[C@@H]2[C@H]3CC[C@H](C3)N2C(=O)Cn2cc(C(N)=O)c3cc(-c4ccc5ccccc5c4)ccc32)n1` [Compound 489, 1-(2-((1R,3S,4S)-3-((6-Methylpyridin-2-yl)carbamoyl)-2-azabicyclo[2.2.1]heptan-2-yl)-2-oxoethyl)-5-(naphthalen-2-yl)-1H-indole-3-carboxamide], for which the IC50 was greater than 10000 nM. Still for that read-out and setting: the same measure for `Cc1cccc(NC(=O)[C@@H]2[C@H]3CC[C@H](C3)N2C(=O)Cn2cc(C(N)=O)c3cc(-c4cccc(C#N)c4)ccc32)n1` [Compound 497, 5-(3-Cyanophenyl)-1-(2-((1R,3S,4S)-3-(6-methylpyridin-2-ylcarbamoyl)-2-azabicyclo[2.2.1]heptan-2-yl)-2-oxoethyl)-1H-indole-3-carboxamide]: greater than 10000 nM; for `Cc1cccc(NC(=O)[C@@H]2[C@H]3CC[C@H](C3)N2C(=O)Cn2cc(C(N)=O)c3cc(-c4ccc(N)nc4)ccc32)n1` [Compound 498, 5-(6-Aminopyridin-3-yl)-1-(2-((1R,3S,4S)-3-(6-methylpyridin-2-ylcarbamoyl)-2-azabicyclo[2.2.1]heptan-2-yl)-2-oxoethyl)-1H-indole-3-carboxamide]: greater than 10000 nM.
